Reference: patent US20230242993A1, “METHOD FOR SCREENING MARKERS FOR PREDICTING PROGNOSIS OF RENAL CELL CARCINOMA USING TRANSCRIPTOMIC ANALYSIS” (Gwangju Institute of Science and Technology, priority 2021, published 2023)

How the values were obtained:
[1] = system: RENCA RCC cells co-cultured with RAW264.7 macrophages; test: Transwell invasion analysis of RENCA RCC cells co-cultured with RAW264.7 macrophages; format: cell-based, mouse; settings: compound treatment, FIGS. 11, 12, 16, 17
Protocol: RENCA mouse renal epithelial adenocarcinoma cells and RAW264.7 mouse macrophages were purchased from the Korean Cell Line Bank (Seoul, Korea). RENCA and RAW264.7 cells were maintained in Dulbecco's Modified Eagle Medium (DMEM) medium (Gibco, Thermo Fisher Scientific, Waltham, Mass., USA) supplemented with 10% FBS and 1% penicillin/streptomycin.
Cancer cell invasion analysis was performed in a 24-well transwell plate (Corning Costar, New York, N.Y., USA). A transwell having a pore size of 8 μm was coated with Type I collagen (3 μg/60 μL/well). A total of 4×10^4 bone marrow-derived macrophage (BMDM) cells were seeded in the lower chamber and differentiated into macrophages by using cancer CM. A total of 1×10^4 cancer cells were seeded into the upper transwell. After 24 or 48 hours, cancer cells that invaded into the lower chamber through the porous membrane were fixed with 3.7% formaldehyde and stained with 0.2% crystal violet. Images of the stained cells were obtained by using an optical microscope (CKX41, Olympus, Tokyo, Japan) and analyzed by using the ImageJ software program (NIH, Bethesda, Md., RRID:SCR_003070). To evaluate the effect of DUSP22 or MAPK14 knockdown, 1×10^5 RAW264.7 cells were seeded in the lower chamber and transfected with siRNA.

[2] = system: RCC cells co-transplanted with macrophages; test: Zebrafish cancer xenograft model of RCC cell dissemination (early stage of metastasis); format: in vivo; settings: macrophages treated with compound before co-transplantation with RCC cells into zebrafish embryos; vs DMSO-treated macrophages; FIGS. 14, 15
Protocol: Evaluation of in vivo mouse RCC cell dissemination (early stage of metastasis) was performed by using a validated zebrafish model.
Embryos of 48 hours post-fertilization were prepared for cell xenotransplantation and either 39 or 44 embryos were used for each treatment group. After the RCC cells were stained with 2 μg/mL DiI (Invitrogen), the villus of the embryos was removed, and then the embryos were anesthetized with 0.0016% tricaine. An injector (Picospritzer ? , Parker Hannifin, Cleveland, Ohio, USA) was used to inject 200 RCC cells into the center of egg yolk or a mixture of the RCC cells and DMSO-treated macrophages or of the RCC cells and DUSP inhibitor-treated macrophages (1:1 ratio) was injected to the center of egg yolk. The xenotransplanted embryos were transferred to a 96-well plate of 200 μL of E3 medium. The number of embryos, representing the dissemination of cancer cells from the injection site, was counted by using a fluorescence microscope (Leica DM2500 Microscope).

SMILES | RCC invasion induced by the co-culture with macrophages [1] | dissemination (early stage of metastasis) in vivo [2]
O=C(O)c1ccc(N2C(=O)/C(=C/c3ccccc3)SC2=S)cc1 [BML-260] | inhibited | significantly inhibited
O=C(O)c1ccc(/C=C2\SC(=S)N(c3cccc(C(F)(F)F)c3)C2=O)cc1 [CFTRinh-172] | inhibited | 
